Reference: patent US5693628A, “11-benzaldoxime-estra-diene derivatives, methods for their production and pharmaceuticals containing these compounds” (priority 1994, dated 1997)

Tested on: uterine weight in cyclic guinea pigs
Assay: Influence on uterine weight in cyclic guinea pigs
Format: in vivo, guinea pig
From the text: FIG. 1. is a chart showing a comparison of the influence on uterine weight in cyclic guineau pigs when treated with the antigestagen agents RU 486, a control (the vehicle), and a compound of the present invention, J 867 (as prepared in accordance with Example 1).
FIG. 1 compares the influence of antigestagen treatment of cyclic guinea pigs on uterine weights for J 867 and RU 486.
Treatment of female guinea pigs with antigestagen
Treatment of adult female guinea pigs from day 10 to day 18 of the cycle (autopsy). Administration of the specified doses using subcutaneous osmotic pumps (Type 2 ML1 ALZET). Vehicle: […] propylene glycol/24 hrs.

## COC[C@]1(OC)CC[C@H]2[C@@H]3CCC4=CC(=O)CCC4=C3[C@@H](c3ccc(C=NO)cc3)C[C@@]21C [Example 1, 11β-[4-(hydroximinomethyl)phenyl]-17β-methoxy-17α-methoxymethyl-estra-4,9-diene-3-on]
1, 3, and 6 mg/24 hrs, s.c. osmotic pump, day 10 to 18 of cycle
  inhibition of uterine weights of cyclic guinea pigs, all doses: inhibited uterine weights to a statistically significant extent
Doses at which RU 486 increases uterine weights, compared with control animals
  uterine weights in the anovulatorial cycle in guinea pigs: significantly reduced uterine weights
